Results reported in patent US20230312473A1, “PROCESS FOR THE PREPARATION OF BIHETEROARYL COMPOUNDS AND CRYSTAL FORMS THEREOF” (Genentech, Inc., priority 2020, published 2023).
Read-outs that look alike come from different tables or passages of the source.

Assays:
[1] = Solubility of compound (1) in solvents at 0° C. and the respective maximum process temperature; assay type: physicochemical; conditions: for Solubility at max temp / Solubility at 0° C.: Form A
Source text: Prior art processes for preparing compound (1) used isopropyl acetate for final crystallization, having a yield of 84% at a relatively low concentration of 3.0%-w/w. […] It was known from previous qualitative experimental data as well as solubility prediction (numerical simulation) that the possible list is reduced since the solubility of GDC-0134 in alcohols is too low. From a process design perspective, a simple cooling crystallization is preferred over other designs like antisolvent or evaporative crystallization especially because of easier process control. […] Mainly esters but also acetonitrile, methyl isobutyl ketone (MIBK), and 2-MeTHF were on the shortlist for precise solubility determination. The solubility of compound (1) in these solvents is Table 5 for 0° C. and the respective maximum process temperatures. […] While the solubility in acetonitrile is very low even for high temperatures, mixtures of 2-MeTHF and acetonitrile show a synergistic effect at least for a 1:1 mixture. The solubility at 70° C. is the highest among the investigated systems, and the theoretical yield is close to 90%. Due to concerns with regard to the efficient removal of acetonitrile to acceptable levels after drying, 2-MeTHF/acetonitrile-mixtures were not further investigated, though. MIBK offered the highest theoretical yield plus a significant increase in concentration compared to iPrOAc and it was selected for a more detailed investigation

[2] = Solubility of compound 1 in the solvent under evaluation at 22° C. and 65° C. (crystallization study); assay type: physicochemical
Experimental: Crystalline compound 1 was evaluated. Crystallization study procedures were done based on the solubility of compound 1 in the solvent under evaluation as follows.
The results are presented below in Table 10 where: * refers to compound 1 prepared as described above; and ** refers to compound 1 prepared as described above and further incubated at 100% relative humidity at 22° C. for 17 days.

Nc1ncc(-c2cc(N3C[C@@H]4C[C@H]3CO4)nc(N3CCC(F)(F)C3)n2)cc1OC(F)F [Compound 1, 5-(6-((1S,4S)-2-oxa-5-azabicyclo[2.2.1]heptan-5-yl)-2-(3,3-difluoropyrrolidin-1-yl)pyrimidin-4-yl)-3-(difluoromethoxy)pyridin-2-amine]
solubility in alcohols ([1]; previous qualitative experimental data and solubility prediction): too low
Solubility at max temp ([1]; solvent: 2-MeTHF:MeCN (1:1), 70 ° C.): 7.3 w/w %
Solubility at 0° C. ([1]; solvent: 2-MeTHF:MeCN (1:1)): 0.8 w/w %
Solubility at max temp ([1]; solvent: 2-MeTHF:MeCN (3:1), 70 ° C.): 2.2 w/w %
Solubility at 0° C. ([1]; solvent: 2-MeTHF:MeCN (3:1)): 1.7 w/w %
Solubility at max temp ([1]; solvent: 2-MeTHF, 70 ° C.): 5.2 w/w %
Solubility at 0° C. ([1]; solvent: 2-MeTHF): 1.6 w/w %
Solubility at max temp ([1]; solvent: Acetonitrile, 70 ° C.): 1.4 w/w %
Solubility at 0° C. ([1]; solvent: Acetonitrile): 0.5 w/w %
Solubility at max temp ([1]; solvent: Ethylacetate, 70 ° C.): 4.8 w/w %
Solubility at 0° C. ([1]; solvent: Ethylacetate): 0.9 w/w %
Solubility at max temp ([1]; solvent: MIBK, 80 ° C.): 5.2 w/w %
Solubility at 0° C. ([1]; solvent: MIBK): 0.4 w/w %
Solubility at max temp ([1]; solvent: Methylacetate, 50 ° C.): 4.9 w/w %
Solubility at 0° C. ([1]; solvent: Methylacetate): 1.3 w/w %
Solubility at max temp ([1]; solvent: i-propyl acetate, 80 ° C.): 4.2 w/w %
Solubility at 0° C. ([1]; solvent: i-propyl acetate): 0.4 w/w %
Solubility at max temp ([1]; solvent: n-propyl acetate, 80 ° C.): 4.3 w/w %
Solubility at 0° C. ([1]; solvent: n-propyl acetate): 0.8 w/w %
solubility ([2]; 2-methyl THF, 22 °C, organic solvent or mixture, thermodynamic from solid, solvent: 2-methyl THF, read-out: Solubility at 22° C.): < 50 mg/mL
solubility ([2]; 2-methyl THF, 65 °C, organic solvent or mixture, solvent: 2-methyl THF, read-out: Solubility at 65° C.): > 50 mg/mL
solubility ([2]; 5% water in ethanol, 22 °C, organic solvent or mixture, thermodynamic from solid, solvent: 5% water in ethanol, read-out: Solubility at 22° C.): < 50 mg/mL
solubility ([2]; 5% water in ethanol, 65 °C, organic solvent or mixture, solvent: 5% water in ethanol, read-out: Solubility at 65° C.): < 50 mg/mL
solubility ([2]; 5% water in isopropanol, 22 °C, organic solvent or mixture, thermodynamic from solid, solvent: 5% water in isopropanol, read-out: Solubility at 22° C.): < 50 mg/mL
solubility ([2]; 5% water in isopropanol, 65 °C, organic solvent or mixture, solvent: 5% water in isopropanol, read-out: Solubility at 65° C.): < 50 mg/mL
solubility ([2]; 5% water in methanol, 22 °C, organic solvent or mixture, thermodynamic from solid, solvent: 5% water in methanol, read-out: Solubility at 22° C.): < 50 mg/mL
solubility ([2]; 5% water in methanol, 65 °C, organic solvent or mixture, solvent: 5% water in methanol, read-out: Solubility at 65° C.): < 50 mg/mL
solubility ([2]; 5% water in propanol, 22 °C, organic solvent or mixture, thermodynamic from solid, solvent: 5% water in propanol, read-out: Solubility at 22° C.): < 50 mg/mL
solubility ([2]; 5% water in propanol, 65 °C, organic solvent or mixture, solvent: 5% water in propanol, read-out: Solubility at 65° C.): < 50 mg/mL
solubility ([2]; 15% water in THF, 22 °C, organic solvent or mixture, thermodynamic from solid, solvent: 15% water in THF, read-out: Solubility at 22° C.): > 50 mg/mL
solubility ([2]; 15% water in acetone, 22 °C, organic solvent or mixture, thermodynamic from solid, solvent: 15% water in acetone, read-out: Solubility at 22° C.): < 50 mg/mL
solubility ([2]; 15% water in acetone, 65 °C, organic solvent or mixture, thermodynamic from solid, solvent: 15% water in acetone, read-out: Solubility at 65° C.): > 50 mg/mL
solubility ([2]; 15% water in ethanol, 22 °C, organic solvent or mixture, thermodynamic from solid, solvent: 15% water in ethanol, read-out: Solubility at 22° C.): < 50 mg/mL
solubility ([2]; 15% water in ethanol, 65 °C, organic solvent or mixture, thermodynamic from solid, solvent: 15% water in ethanol, read-out: Solubility at 65° C.): < 50 mg/mL
solubility ([2]; 15% water in isopropanol, 22 °C, organic solvent or mixture, thermodynamic from solid, solvent: 15% water in isopropanol, read-out: Solubility at 22° C.): < 50 mg/mL
solubility ([2]; 15% water in isopropanol, 65 °C, organic solvent or mixture, thermodynamic from solid, solvent: 15% water in isopropanol, read-out: Solubility at 65° C.): < 50 mg/mL
solubility ([2]; 15% water in methanol, 22 °C, organic solvent or mixture, thermodynamic from solid, solvent: 15% water in methanol, read-out: Solubility at 22° C.): < 50 mg/mL
solubility ([2]; 15% water in methanol, 65 °C, organic solvent or mixture, solvent: 15% water in methanol, read-out: Solubility at 65° C.): < 50 mg/mL
solubility ([2]; 15% water in propanol, 22 °C, organic solvent or mixture, thermodynamic from solid, solvent: 15% water in propanol, read-out: Solubility at 22° C.): < 50 mg/mL
solubility ([2]; 15% water in propanol, 65 °C, organic solvent or mixture, solvent: 15% water in propanol, read-out: Solubility at 65° C.): < 50 mg/mL
solubility ([2]; 20% water in acetonitrile, 22 °C, organic solvent or mixture, thermodynamic from solid, solvent: 20% water in acetonitrile, read-out: Solubility at 22° C.): < 50 mg/mL
solubility ([2]; 20% water in acetonitrile, 65 °C, organic solvent or mixture, solvent: 20% water in acetonitrile, read-out: Solubility at 65° C.): > 50 mg/mL
solubility ([2]; 50% water in acetonitrile, 22 °C, aqueous with cosolvent or surfactant or cyclodextrin, thermodynamic from solid, solvent: 50% water in acetonitrile, read-out: Solubility at 22° C.): < 50 mg/mL
solubility ([2]; 50% water in acetonitrile, 65 °C, aqueous with cosolvent or surfactant or cyclodextrin, solvent: 50% water in acetonitrile, read-out: Solubility at 65° C.): < 50 mg/mL
solubility ([2]; 50% water in ethanol, 22 °C, aqueous with cosolvent or surfactant or cyclodextrin, thermodynamic from solid, solvent: 50% water in ethanol, read-out: Solubility at 22° C.): < 50 mg/mL
solubility ([2]; 50% water in ethanol, 65 °C, aqueous with cosolvent or surfactant or cyclodextrin, solvent: 50% water in ethanol, read-out: Solubility at 65° C.): < 50 mg/mL
solubility ([2]; 50% water in isopropanol, 22 °C, aqueous with cosolvent or surfactant or cyclodextrin, thermodynamic from solid, solvent: 50% water in isopropanol, read-out: Solubility at 22° C.): < 50 mg/mL
solubility ([2]; 50% water in isopropanol, 65 °C, aqueous with cosolvent or surfactant or cyclodextrin, solvent: 50% water in isopropanol, read-out: Solubility at 65° C.): < 50 mg/mL
solubility ([2]; 50% water in methanol, 22 °C, aqueous with cosolvent or surfactant or cyclodextrin, thermodynamic from solid, solvent: 50% water in methanol, read-out: Solubility at 22° C.): < 50 mg/mL
solubility ([2]; 50% water in methanol, 65 °C, aqueous with cosolvent or surfactant or cyclodextrin, solvent: 50% water in methanol, read-out: Solubility at 65° C.): < 50 mg/mL
solubility ([2]; 50% water in propanol, 22 °C, aqueous with cosolvent or surfactant or cyclodextrin, thermodynamic from solid, solvent: 50% water in propanol, read-out: Solubility at 22° C.): < 50 mg/mL
solubility ([2]; 50% water in propanol, 65 °C, aqueous with cosolvent or surfactant or cyclodextrin, solvent: 50% water in propanol, read-out: Solubility at 65° C.): < 50 mg/mL
